Experiments:
[1] = tested on: time spent awake, in SWS and REM sleep; assay: Rat polysomnography; assay type: in vivo; details: 5.6 mg/kg s.c., first 4 h
Source text: Model 4ET telemetry device components (Data Sciences International, St Paul, MN, USA) were bilaterally placed in subcutaneous pockets on the dorsal flank of adult male Sprague-Dawley rats (200–400 grams). Two pairs of leads were implanted superficially to burr holes drilled over the frontal cortex (stainless steel screws, Plastics One, Roanoke, VA at coordinates: A-P = +1.5 mm, M-L = 1.5 mm) and parietal cortex (coordinates: A-P = −3.7 mm, M-L = −2.2 mm), and the cerebellum bilaterally to be used as ground and reference for electroencephalographic (EEG) recordings. A stainless-steel wire (Plastics One, Roanoke, VA) was implanted into the neck muscle to monitor electromyogram (EMG). All recordings were performed inside the home cages of animals using RPC-2 telemetry receivers (Data Sciences International, St. Paul, MN) at a sampling rate of 500 Hz for data acquisition. Baseline data, while on vehicle, were obtained for 24 h prior to compound administration. PF-6142 (1.0 or 5.6 mg/kg, s.c.) was administered acutely following the baseline day.
Raw EEG traces were analyzed using custom scripts in MATLAB (The Mathworks, Natick, MA, version 7.8 (R2009a)) to evaluate spectral changes between treatment groups. Raw EEG data were read into the MATLAB software, segmented to match that of the polysomnography (PSG) data (see below) and fast Fourier transforms (FFTs) were performed. Only data collected on the parietal lead were the subject of statistical analyses. PSG analysis was applied to all EEG/EMG data and utilized an in-house algorithm developed in LabView (National Instruments, Austin TX) as previously described ([Harvey et al., 2013]).
Relative power data in each band aggregated over 2 h-long time bins, while on drug, were normalized to baseline levels in corresponding time bins relative to dosing. For statistical analysis the R software was used. The effects of two within factors, dose and time, on cumulative time spent in three stages, awake, REM, and NREM sleep were assessed using generalized linear mixed model. […]

[2] = tested on: conditioned avoidance responding; assay: Rat conditioned avoidance response (CAR); assay type: in vivo
Method: The CAR assay was performed under similar conditions previously described ([Marquis et al., 2011]) at WuXiAppTec Inc. (Delin Rd. #90, Waigaoquiao Free Trade Zone, Shanghai 200131, China). For this study, adult male Fisher-344 rats were trained and tested in a two-way active avoidance apparatus with MED-PC software (MED Associates, St. Albans, VT, USA).
Briefly, subjects were handled and acclimated to the shuttle boxes for 2 d prior to training sessions. During training sessions, subjects were trained to avoid an electric footshock by moving to the adjacent, non-stimulus side of the shuttle box upon presentation of tone + light stimuli which preceded the presentation of the footshock (0.6 mA, 10 s duration) by 10 s. For this assay an avoidance was defined as moving to the adjacent compartment during the tone+light presentation that preceded the shock, an escape was defined as moving to the adjacent compartment upon presentation of the shock, and an escape failure was defined as a lack of relocation to the adjacent compartment throughout the presentation of the shock. Subjects received 30 trials of training per day for 5 d. Subjects with ≥ 80% avoidance responses on two consecutive days with no escape failures, were considered qualified for testing, and were randomized across treatment groups (n=8–9 per treatment group). […] Avoidance responding was calculated as % of the number of total trials in which an avoidance occurred. Data were calculated for each animal and compared across treatment groups using one-way ANOVA with Dunnett’s post-test versus the vehicle + vehicle treated group.

[3] = tested on: ketamine-induced working memory deficits; assay: Ketamine-disrupted radial arm maze (RAM); assay type: in vivo, rat; details: 0.01, 0.056, 0.178, 0.56 mg/kg s.c., 90 min before ketamine 10 mg/kg
Source text: Two cohorts of adult male Long-Evans rats (N=30 each) were trained in a spatial working memory task on an eight-arm RAM, (Pathfinder Maze System, Lafayette Instrument Co., Lafayette, IN), using a procedure adapted from [Ward et al. (1990)] and described in detail in [Strick et al. (2011)]. Briefly, rats were food-restricted to provide motivation to perform the RAM task. The task requires that the animals enter each arm to retrieve a reinforcement food pellets, using spatial cues in the room to remember which arms of the maze they have previously entered. Rats were individually placed on the maze and allowed to navigate until all eight arms were entered and the pellets were consumed or until 30 choices were made, or until 5 min had elapsed. Entry into an arm previously entered was counted as an error. […] Training continued until all animals had reached the training criterion, defined as two or fewer errors on two consecutive days. […] Performance on the maze was evaluated 30 min later by an observer that was blinded to treatments.
The R 3.0.1 statistical software was used to compare the error rate data. The effects of treatment and the interaction on the error rate were assessed using a one-way mixed model ANOVA using generalized least squares method from lme4 library. […]

[4] = PK, brain exposure and plasma/brain tissue binding studies; assay type: in vivo; details: data not presented
Method: Across the set of experiments, PK was either collected from satellite animals or in separate, dedicated studies. In addition to plasma PK, exposures were obtained in brain tissue for rat and mouse, and plasma protein binding and brain tissue binding were measured. Using the measured exposures, partitioning, and binding parameters, and the
Exposures increased in a generally dose proportional manner across most of the doses used in the pharmacology studies, and inter animal variability was typically low. Exposures were obtained in brain tissues for rat and mouse, and plasma protein binding and brain tissue binding were measured.

## Cc1cc(Oc2nccc3occc23)ccc1-c1c(C)ncc2nccn12 [PF-6142]
[1]
  decrease of time spent in slow-wave sleep relative to vehicle: 88.1%
  difference in fraction of REM sleep, vehicle vs high dose group: 88.2%
  increase of time spent awake: 246.9%
[2]; PF-6142 1.78 mg/kg s.c. + risperidone 0.1 mg/kg s.c.
  % avoidance responses: 76.25%
[2]; PF-6142 1.78 mg/kg s.c. + risperidone 0.56 mg/kg s.c.
  % avoidance responses: 8.125%
[2]; PF-6142 1.78 mg/kg s.c. alone, combination study (Figure 4D)
  % avoidance responding: 94.38%
[2]; PF-6142 alone 0.32 mg/kg s.c.
  mean % avoidance responses: 95.93%
[2]; PF-6142 alone 1.78 mg/kg s.c., dose-range study
  mean % avoidance responses: 98.47%
[2]; PF-6142 alone 3.2 mg/kg s.c.
  mean % avoidance responses: 95.57%
[2]; PF-6142 alone 5.6 mg/kg s.c.
  mean % avoidance responses: 95.75%
[3]
  ketamine-induced error rate in RAM: decreased the ketamine-induced error rate at all, except for the lowest dose administered
[4]; brain tissues of rat and mouse
  brain penetration: fully brain penetrant
[4]; rat and mouse
  unbound concentrations between the brain and plasma compartments: approaching unity

Reference: paper PMC7358525, “Characterization of PF-6142, a Novel, Non-Catecholamine Dopamine Receptor D1 Agonist, in Murine and Nonhuman Primate Models of Dopaminergic Activation” (Frontiers in Pharmacology, 2020)
